As usually defined, the EC50 is the concentration at which the effect is half-maximal. Higher therefore signals a need for much substance.

The text below walks through data of article PMC6355875 (Scientific Reports, 2019).

Holding throughout (assay type): cell-based
Assay [1] concerns the target T1, hPPAR-δ (Homo sapiens, UniProt Q03181).
T1 construct: expressed in transfected cells; host or cells: HEK293T
T1 sequence (Q03181 147-441): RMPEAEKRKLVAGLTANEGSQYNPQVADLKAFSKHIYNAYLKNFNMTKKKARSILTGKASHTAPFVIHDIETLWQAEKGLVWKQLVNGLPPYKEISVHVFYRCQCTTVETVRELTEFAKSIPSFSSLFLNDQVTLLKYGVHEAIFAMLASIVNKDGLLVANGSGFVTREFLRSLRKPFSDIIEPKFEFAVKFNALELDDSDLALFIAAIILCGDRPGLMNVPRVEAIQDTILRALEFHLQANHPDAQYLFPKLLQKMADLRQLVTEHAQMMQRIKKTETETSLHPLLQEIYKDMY
The experiment in a line: GAL4-DBD hPPARδ/LBD luciferase reporter assay in HEK293T cells. The note with it: for EC50: activation, HEK293T reporter, overnight; for hPPAR subtype profile: from EC50 on hPPAR-δ, -α, -γ. The procedure:
(§1) A GAL4-DNA Binding Domain (GAL4-DBD) fusion protein was constructed for each PPAR family member. To assess compound activity, each construct was co-transfected into HEK293T cells (American Type Culture Collection; Manassass, VA) along with the reporter construct, pGL5 (Promega) using Fugene 6 (Promega) as a transfection reagent and the manufacturer’s protocol. An eleven point dilution series of each compound was added to the cells and incubated overnight. Luciferase levels were then determined following the addition of Bright-Glo (Promega) using the manufacturer’s recommendations.

Assay [2] has as its target T2, hPPAR-α (Homo sapiens, UniProt Q07869).
T2 construct: expressed in transfected cells; host or cells: HEK293T
T2 sequence (Q07869 175-468): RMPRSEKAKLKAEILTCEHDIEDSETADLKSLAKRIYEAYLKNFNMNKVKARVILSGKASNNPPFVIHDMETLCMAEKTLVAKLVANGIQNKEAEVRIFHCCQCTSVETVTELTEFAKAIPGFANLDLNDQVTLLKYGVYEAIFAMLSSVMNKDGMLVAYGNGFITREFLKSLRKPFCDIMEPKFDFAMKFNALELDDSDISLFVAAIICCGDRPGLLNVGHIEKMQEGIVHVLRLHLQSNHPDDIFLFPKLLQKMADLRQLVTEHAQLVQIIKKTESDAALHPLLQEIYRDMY
Nature of the assay: GAL4-DBD hPPARα/LBD luciferase reporter assay in HEK293T cells. The note with it: activation, overnight. The procedure:
as §1
On the technique in general: A reporter such as luciferase makes a cellular process visible.

Assay [3] deals with T3, hPPAR-γ (Homo sapiens, UniProt P37231).
T3 construct: expressed in transfected cells; host or cells: HEK293T
T3 sequence (P37231 184-477 isoform P37231-2): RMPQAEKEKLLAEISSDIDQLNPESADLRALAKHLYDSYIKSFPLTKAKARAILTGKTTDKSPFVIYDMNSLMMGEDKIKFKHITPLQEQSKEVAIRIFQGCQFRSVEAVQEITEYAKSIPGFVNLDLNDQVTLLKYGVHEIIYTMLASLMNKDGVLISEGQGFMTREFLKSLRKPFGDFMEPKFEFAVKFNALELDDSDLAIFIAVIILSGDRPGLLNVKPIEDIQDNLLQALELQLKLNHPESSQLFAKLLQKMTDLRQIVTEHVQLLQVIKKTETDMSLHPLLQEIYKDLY
The experiment in a line: GAL4-DBD hPPARγ/LBD luciferase reporter assay in HEK293T cells. The note with it: activation, overnight. The method, then:
as §1

In assay [1], `COCCCn1c(SCc2cccc(C(=O)O)c2)nc2sc3c(c2c1=O)CCCS3` [GNF-5154, COCCCN1C(=O)C2=C(SC3=C2CCCS3)N=C1SCC1=CC=CC(=C1)C(O)=O] displayed an EC50 of 7.04 µM.
Regarding `CCOc1cccc(/C=N/c2cccc(-c3csc(/N=C/c4cccc(OCC)c4O)n3)c2)c1O` [GNF-6878, CCOC1=CC=CC(C=NC2=NC(=CS2)C2=CC=CC(=C2)N=CC2=CC=CC(OCC)=C2O)=C1O], the results for the EC50 in assay [1], in assay [2] and in assay [3] were 0.008 µM, more than 10 µM and more than 10 µM, respectively.
Turning to `O=C(NCCCCOc1ccc(F)cc1)c1ccc([N+](=O)[O-])c(O)c1` [GNF-7176, OC1=CC(=CC=C1[N+]([O-])=O)C(=O)NCCCCOC1=CC=C(F)C=C1], the EC50 in assay [1] was 7.24 µM; in assay [2], more than 10 µM; in assay [3], more than 10 µM.
Take `O=C(NCc1ccc(COCC(F)(F)F)cc1)c1cc(-c2ccccc2)[nH]n1` [GNF-3632, FC(F)(F)COCC1=CC=C(CNC(=O)C2=NNC(=C2)C2=CC=CC=C2)C=C1]: the results for the concentration for a half-maximal effect (EC50) in assay [1], in assay [2] and in assay [3] were 0.007 µM, 5.48 µM and more than 10 µM, respectively. In addition, the “hPPAR subtype profile” value in assay [1] was “agonists of hPPAR-δ and hPPAR-α only”.
For `O=C(OCC(=O)c1ccc(O)cc1O)c1ccc(COc2ccc3ccccc3c2)o1` [GNF-6928, OC1=CC=C(C(=O)COC(=O)C2=CC=C(COC3=CC=C4C=CC=CC4=C3)O2)C(O)=C1], the EC50 in assay [1] came to 3.7 µM; in assay [2], 6.9 µM; in assay [3], 3.78 µM.
The corresponding values for `Cc1cc(C(=O)COC(=O)c2ccc(O)cc2O)c(C)n1Cc1ccc(F)cc1` [GNF-9969, CC1=CC(C(=O)COC(=O)C2=CC=C(O)C=C2O)=C(C)N1CC1=CC=C(F)C=C1] are 9.48 µM, 6.94 µM and 1.01 µM.
The corresponding values for `COc1ccc(N2CCN(C(=O)CSc3nnc(COc4ccc(Cl)cc4C)[nH]3)CC2)cc1` [GNF-7486, COC1=CC=C(C=C1)N1CCN(CC1)C(=O)CSC1=NN=C(COC2=CC=C(Cl)C=C2C)N1] are 0.018 µM, more than 10 µM and more than 10 µM.
The corresponding values for `O=C(Nc1ccccc1O)C1CCN(C(=O)COc2ccc(F)cc2)CC1` [GNF-5891, OC1=CC=CC=C1NC(=O)C1CCN(CC1)C(=O)COC1=CC=C(F)C=C1] are 0.013 µM, more than 10 µM and 7.28 µM.
Regarding `O=C(COc1ccc(C(=O)O)cc1)NC(c1ccccc1)c1ccc(Cl)cc1` (centres unmarked) [GNF-0248, OC(=O)C1=CC=C(OCC(=O)NC(C2=CC=CC=C2)C2=CC=C(Cl)C=C2)C=C1], the EC50 in assay [1] is 7.55 µM; in assay [2] it was 7.04 µM; in assay [3], more than 10 µM.
As to `COc1cc(CNCc2cc(C)on2)ccc1OCC(=O)Nc1ccc(Br)cc1` [GNF-6952, COC1=CC(CNCC2=NOC(C)=C2)=CC=C1OCC(=O)NC1=CC=C(Br)C=C1], the EC50 in assay [1] was 0.019 µM; in assay [2], 7.56 µM; in assay [3], more than 10 µM. Further, the “hPPAR subtype profile” value in assay [1] was “agonists of hPPAR-δ and hPPAR-α only”.
In the case of `O=[N+]([O-])c1cc(S(=O)(=O)N2CCCC2)ccc1OCC(O)CNCc1ccc(F)cc1` (centres unmarked) [GNF-9594, OC(CNCC1=CC=C(F)C=C1)COC1=CC=C(C=C1[N+]([O-])=O)S(=O)(=O)N1CCCC1], the EC50 in assay [1] is 4.6 µM; in assay [2] it was more than 10 µM; in assay [3] it was more than 10 µM.
With `Cc1cc(C(=O)COc2ccc(C(=O)O)cc2)c(C)n1CCC1=CCCCC1` [GNF-9057, CC1=CC(C(=O)COC2=CC=C(C=C2)C(O)=O)=C(C)N1CCC1=CCCCC1], the 50% effective concentration (EC50) is 7.49 µM in assay [1], 4.63 µM in assay [2] and 8.59 µM in assay [3].
For `O=C(O)Cc1csc(SCc2cc(F)cc3c2OC(c2ccccc2)OC3)n1` (centres unmarked) [GNF-1051, OC(=O)CC1=CSC(SCC2=CC(F)=CC3=C2OC(OC3)C2=CC=CC=C2)=N1], the EC50 in assay [1] was 7.76 µM; in assay [2], 7.33 µM; in assay [3] it was more than 10 µM.
Taken in the same sequence, the figures for `O=C(CN1CCN(c2ccc(O)cc2)CC1)NCC1(N2CCOCC2)CCCCC1` [GNF-8501, OC1=CC=C(C=C1)N1CCN(CC(=O)NCC2(CCCCC2)N2CCOCC2)CC1] were 0.006 µM, more than 10 µM and more than 10 µM.
For `Cc1ccc(C(=O)Nc2cccc(CNCc3ccc(OC(F)(F)F)cc3)c2)cc1` [GNF-0341, CC1=CC=C(C=C1)C(=O)NC1=CC=CC(CNCC2=CC=C(OC(F)(F)F)C=C2)=C1], the EC50 is 0.011 µM in assay [1], more than 10 µM in assay [2] and 1.26 µM in assay [3]. Moreover, in assay [1], the “hPPAR subtype profile” value was “agonists of hPPAR-δ and hPPAR-γ only”.
Take `O=C(Nc1ccccc1O)C1CCN(C(=O)c2ccc(OCC3CCCO3)cc2)CC1` (centres unmarked) [GNF-9448, OC1=CC=CC=C1NC(=O)C1CCN(CC1)C(=O)C1=CC=C(OCC2CCCO2)C=C1]: the EC50 is 0.883 µM in assay [1], 7.06 µM in assay [2] and 0.937 µM in assay [3].
Taken in the same sequence, the figures for `CCCOc1c(/C=C/C(=O)c2ccc(SCC(=O)O)c(OC)c2)cccc1OCC` [GNF-1676, CCCOC1=C(OCC)C=CC=C1C=CC(=O)C1=CC=C(SCC(O)=O)C(OC)=C1] were 8.39 µM, 6.19 µM and 1.29 µM.
On to `Cc1ccc(-c2nc(SCCCC(=O)N3CCOCC3)[nH]c2-c2ccc(C)cc2)cc1` [GNF-9820, CC1=CC=C(C=C1)C1=C(N=C(N1)SCCCC(=O)N1CCOCC1)C1=CC=C(C)C=C1], for which the EC50 in assay [1] is 0.012 µM; in assay [2], more than 10 µM; in assay [3] it was more than 10 µM.
With `O=C(Nc1cccc(CNCC(c2cccs2)N2CCOCC2)c1)c1ccc(Cl)cc1` (centres unmarked) [GNF-6029, ClC1=CC=C(C=C1)C(=O)NC1=CC=CC(CNCC(N2CCOCC2)C2=CC=CS2)=C1], the EC50 in assay [1] was 0.012 µM; in assay [2] it was more than 10 µM; in assay [3] it was more than 10 µM.
On to `COc1ccc(C(=O)/C=C/c2c(C)nn(-c3ccccc3)c2Cl)cc1CSCC(=O)O` [GNF-4909, COC1=CC=C(C=C1CSCC(O)=O)C(=O)C=CC1=C(Cl)N(N=C1C)C1=CC=CC=C1], for which the EC50 in assay [1] was found to be 8.24 µM; in assay [2] it was 0.825 µM; in assay [3] it was 1.83 µM.
For the compound `CC(C(=O)Nc1ccc(SC(F)F)cc1)N1CC=C(c2ccc(O)cc2)CC1` (centres unmarked) [GNF-8208, CC(N1CCC(=CC1)C1=CC=C(O)C=C1)C(=O)NC1=CC=C(SC(F)F)C=C1], the concentration giving a half-maximal response (EC50) is 7.86 µM in assay [1], more than 10 µM in assay [2] and more than 10 µM in assay [3].
As to `COc1ccc(CNCc2ccc(Oc3cccnc3)c(F)c2)cc1O` [GNF-8065, COC1=CC=C(CNCC2=CC=C(OC3=CC=CN=C3)C(F)=C2)C=C1O], the EC50 in assay [2] and in assay [3] was more than 10 µM throughout.
`COc1cc(/C=C2/S/C(=N/c3ccccc3)NC2=O)ccc1OCc1cccc(C(=O)O)c1` [GNF-5758, COC1=CC(C=C2SC(NC2=O)=NC2=CC=CC=C2)=CC=C1OCC1=CC=CC(=C1)C(O)=O]: the EC50 in assay [1] amounted to 4.33 µM; in assay [2], 6.93 µM; in assay [3] it was 9.73 µM.
With `Cc1cccc(OCCNC(=O)COc2ccc(CC(=O)O)cc2)c1` [GNF-0242, CC1=CC=CC(OCCNC(=O)COC2=CC=C(CC(O)=O)C=C2)=C1], the EC50 in assay [2] and in assay [3] was more than 10 µM throughout.
In the case of `CCOc1cc(/C=C/C(=O)O)ccc1OCc1ccc(C(C)(C)C)cc1` [GNF-4516, CCOC1=CC(C=CC(O)=O)=CC=C1OCC1=CC=C(C=C1)C(C)(C)C], the EC50 in assay [1] is 6.82 µM; in assay [2] it was 2.33 µM; in assay [3] it was more than 10 µM.
